For one data set, the system named is obese Zucker fa/fa rats. The data set can be described thus: Chronic feeding assay (body weight, food and water consumption). Particulars: once per day at 10 mg/kg p.o.; day 6 of treatment. In kind it is in vivo, rat. An excerpt: Evaluation of Compound's Efficacy on the Reduction of Body Weight and Food and Water Consumption in Obese Zucker fa/fa Rats
The purpose of this protocol is to determine the effect of chronic administration of an unknown compound on body weight and food and water consumption in obese Zucker fa/fa rats. Obese Zucker fa/fa rats are frequently used in the determination of compound efficacy in the reduction of body weight. This animal model has been successfully used in the identification and characterization of the efficacy profile of compounds that are or have been used in the management of body weight in obese humans (see, e.g., Al-Barazanji et al., Obes Res. 8:317–323, 2000; Assimacopoulos-Jeannet et al., Am. J. Physiol. 260(2 Pt 2):R278–283, 1991; Dryden et al., Horm. Metab. Res. 31:363–366, 1999; Edwards and Stevens, Pharmacol. Biochem. Behav. 47:865–872, 1994; Grinker et al., Pharmacol. Biochem. Behav. 12:265–275, 1980).
A typical study includes 60–80 male Zucker fa/fa (n=10/treatment group) with an average body weight of approximately 550 g. […]
Animals are orally gavaged (2 mL/kg) daily before the dark phase of the LD/cycle for a pre-determined number of days (typically 6–14 days) with their assigned dose/compound. At this time, body weight, food and water consumption are measured. On the final day, animals are euthanized by CO2 inhalation, and the body weight is measured.

The nature of data set [1]: Measurement of brain exposure. In kind it is in vivo. Particulars: male, obese Zucker fa/fa, rat, brain homogenate, oral; 10 mg/kg p.o.; brains collected at 2 hours post-dosing; read-out: brain homogenate exposure level. The procedure:
Measurement of Brain Exposure
Male obese Zucker fa/fa rats are administered compounds, typically at 10 mg/kg p.o., and then brains are collected at 2 hours post-dosing for determination of brain concentration. Brains are weighed and homogenized with 4 mL 10 mM ammonium acetate buffer (pH 3), and the brain tissue homogenate samples are extracted via protein precipitation with acetonitrile. Samples are vortexed, centrifuged, and analyzed by liquid chromatography utilizing mass spectrometer selective detection (LC/MS/MS) using the heated nebulizer interface. Samples are quantitated using weighted (1/x^2) linear internal standard calibration curve.

Counter-ions that a name gives are not always drawn.

For `COc1ccc(-c2c(C)c3c(n2-c2ccccc2Cl)CCN(N2CCCCC2)C3=O)cc1.Cl` [entry 189, 1-(2-chlorophenyl)-2-(4-methoxyphenyl)-3-methyl-5-(1-piperidinyl)-1,5,6,7-tetrahydro-4H-pyrrolo[3,2-c]pyridin-4-one hydrochloride], the “increase in body weight from baseline” value with obese Zucker fa/fa rats was “no increase in body weight from baseline”.

As for `O[C@@H]1CCCC[C@H]1N1CCc2c(cc(-c3ccc(Cl)cc3)n2-c2ccccc2Cl)C1` (relative stereo) [entry 18, trans-2-[1-(2-chlorophenyl)-2-(4-chlorophenyl)-1,4,6,7-tetrahydro-5H-pyrrolo[3,2-c]pyridin-5-yl]cyclohexanol hydrochloride], the concentration at 2 h in data set [1] was over 500 nM.
